Source: PMC5848165 (Toxins, 2018)
Residues, ends and D or L forms follow the SMILES beside them.

Test system: WT Nav1.7, domain II voltage sensor
Assay: Voltage sensor trapping test on WT Nav1.7 (patch clamp pulse protocols)
Type: cell-based, human
Details: 10 µM
Protocol: It has been proven that scorpion β-toxins trapped the domain II S4 voltage sensor in the outward position. However, HWTX-IV inhibited sodium channels by trapping voltage sensor in a closed configuration [15]. We wondered whether JZTX-34 blocked sodium channels in a resting state or an outward position. The current traces were recorded by a 50 ms depolarizing pulse of −10 mV from a holding potential of −80 mV. At first, 10 µM JZTX-34 was added to cells and incubated for 5 min. Then, the currents were elicited by the protocol described before. […] To further confirm this, the same protocol described by Cestele et al. was used to assess whether JZTX-34 traps the domain II S4 voltage sensor of the WT Nav1.7 in a closed position. A 15 ms test pulse to 0 mV was applied from a holding potential of −80 mV and was followed by a 1 ms conditioning pulse to +50 mV. Then, a 15 ms test pulse to −65 mV was used to detect whether the currents were elicited.
Figure 5 JZTX-34 traps the domain II voltage sensor in closed configuration. (A) Nav1.7 current traces were elicited by a protocol as following. First, an inward sodium currents were elicited by a 50 ms depolarizing potential to 0 mV from a holding potential of −80 mV every 5 s. Second, 10 μM JZTX-34 were added to bath solution. Finally, the same pulse protocol was applied to elicit inward currents after a 5 min toxin treatment. (B) The current traces 0, 15 ms, 100 ms, and 5 min after toxin treatment are shown, which were elicited by a protocol as shown in C. (C) This pulse protocol was included three phases and applied every 5 s. […]
The HEK293T cells were maintained in standard culture conditions (5% CO2 and 37 °C). […] After culturing for 36–72 h, cells with obvious green fluorescence were selected for sodium currents recordings the internal solution for sodium currents recording that contained (in mM) 140 CsF, 5 NaCl, 10 HEPES, 3 Na2-ATP, and 10 EGTA. […]
Sodium currents were recorded from DRG, HEK293, and ND cells by the whole-cell patch-clamp technique at 25 °C. […]

## CC(C)C[C@@H]1NC(=O)[C@H](Cc2c[nH]c3ccccc23)NC(=O)[C@H](CCC(=O)O)NC(=O)[C@H](CCCNC(=N)N)NC(=O)[C@@H](NC(=O)[C@H](C)N)CSSC[C@@H]2NC(=O)[C@@H]3CSSC[C@@H](C(=O)N[C@H](C(=O)N[C@@H](Cc4c[nH]c5ccccc45)C(=O)N[C@@H](CC(=O)O)C(=O)N[C@@H](Cc4c[nH]c5ccccc45)C(=O)N[C@H](C(=O)N[C@H](C(=O)O)C(C)C)[C@@H](C)O)C(C)C)NC(=O)[C@H](Cc4c[nH]cn4)NC(=O)[C@H](Cc4ccc(O)cc4)NC(=O)[C@@H]4CCCN4C(=O)[C@H](Cc4c[nH]c5ccccc45)NC(=O)[C@H](CCCCN)NC(=O)[C@H](CCCCN)NC(=O)[C@H](CCCNC(=N)N)NC(=O)[C@H](CSSC[C@H](NC(=O)CNC(=O)CNC1=O)C(=O)N[C@@H](CO)C(=O)N[C@@H](CCCCN)C(=O)N[C@@H](CC(=O)O)C(=O)N[C@@H](C)C(=O)N[C@@H](CC(=O)O)C(=O)N3)NC(=O)[C@H](CCC(=O)O)NC(=O)[C@H](CC(C)C)NC(=O)[C@H](Cc1c[nH]cn1)NC(=O)[C@H](C)NC2=O [JZTX-34, Jingzhaotoxin-34] (HELM PEPTIDE1{A.C.R.E.W.L.G.G.C.S.K.D.A.D.C.C.A.H.L.E.C.R.K.K.W.P.Y.H.C.V.W.D.W.T.V}$PEPTIDE1,PEPTIDE1,2:R3-16:R3|PEPTIDE1,PEPTIDE1,9:R3-21:R3|PEPTIDE1,PEPTIDE1,15:R3-29:R3$$$V2.0; N-terminus and C-terminus assumed)
5 min incubation, −10 mV (legend: 0 mV) from −80 mV
  inhibition at first pulse after incubation at rest: currents were significantly inhibited at the first pulse
15 ms test pulse to 0 mV from −80 mV
  current amplitude at first test pulse (0 mV): greatly depressed in a time-dependent manner
After 1 ms conditioning pulse to +50 mV
  inward current at second test pulse (−65 mV): no inward current was observed
